Source: PubChem BioAssay (NCI)
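Values below derive from 48-hour exposures of cells grown in 96-well plates, with endpoints linearly interpolated between the two concentrations bracketing the appropriate inhibition level. At the GI50, growth is halved. TGI denotes the concentration required for complete inhibition of growth.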

Key:
Test in all cases: NCI-60 cell line screen, 48 h
COLO 205 colon = test system: COLO 205 colon
EKVX NSCLC = test system: EKVX NSCLC
KM12 colon = test system: KM12 colon
M14 melanoma = test system: M14 melanoma
MCF7 breast = test system: MCF7 breast
RPMI-8226 leukemia = test system: RPMI-8226 leukemia
SF-268 CNS = test system: SF-268 CNS
SN12C renal = test system: SN12C renal
UACC-257 melanoma = test system: UACC-257 melanoma
UACC-62 melanoma = test system: UACC-62 melanoma

## CC(=NNC(=S)Nc1ccccc1)c1cccc(C(C)=NNC(=S)Nc2ccccc2)n1
COLO 205 colon
  TGI: > 100 µM
EKVX NSCLC
  TGI: > 100 µM
KM12 colon
  TGI: > 100 µM
M14 melanoma
  TGI: 21.2 µM
MCF7 breast
  TGI: > 30.7 µM
RPMI-8226 leukemia
  TGI: > 31.4 µM
SF-268 CNS
  TGI: > 100 µM
SN12C renal
  TGI: > 100 µM
UACC-257 melanoma
  TGI: > 100 µM
UACC-62 melanoma
  TGI: 26.7 µM

## Cn1c(SCc2ccc(F)cc2)nnc1C12CC3CC(CC(C3)C1)C2
COLO 205 colon
  TGI: 31.6 µM
EKVX NSCLC
  TGI: > 100 µM
M14 melanoma
  TGI: 71.8 µM
RPMI-8226 leukemia
  TGI: 82.5 µM
SF-268 CNS
  TGI: > 100 µM
SN12C renal
  TGI: > 100 µM
UACC-257 melanoma
  TGI: 91.7 µM
UACC-62 melanoma
  TGI: > 100 µM

## NC(=O)c1c(NC(=O)c2ccccc2)sc2c1CCC(=O)C2
EKVX NSCLC
  GI50: 1.82 µM
  TGI: 11.5 µM
KM12 colon
  GI50: 1.36 µM
  TGI: 5.61 µM
MCF7 breast
  GI50: 1.82 µM
  TGI: 9.02 µM
RPMI-8226 leukemia
  GI50: 0.248 µM
  TGI: 0.751 µM
SF-268 CNS
  GI50: 2.81 µM
  TGI: > 100 µM
SN12C renal
  GI50: 0.612 µM
  TGI: 11.5 µM
UACC-257 melanoma
  GI50: 2.21 µM
  TGI: 6.13 µM
UACC-62 melanoma
  GI50: 0.723 µM
  TGI: 2.51 µM

## COc1ccc(-c2nc(SCC(=O)NNC(=S)Nc3ccccc3)[nH]c2-c2ccc(OC)cc2)cc1
COLO 205 colon
  TGI: 30.4 µM
EKVX NSCLC
  TGI: 75.9 µM
KM12 colon
  TGI: 85.9 µM
M14 melanoma
  TGI: 34.6 µM
MCF7 breast
  TGI: 47.5 µM
SF-268 CNS
  TGI: 59.8 µM
SN12C renal
  TGI: 50.8 µM
UACC-257 melanoma
  TGI: 44.1 µM
UACC-62 melanoma
  TGI: 30.6 µM

## COC1=CC(=O)c2c(c(-c3nc(C)cs3)cn2C)C1=O
COLO 205 colon
  TGI: 37.6 µM
EKVX NSCLC
  TGI: 33.6 µM
KM12 colon
  TGI: 26.7 µM
M14 melanoma
  TGI: 7.39 µM
MCF7 breast
  TGI: 10.9 µM
RPMI-8226 leukemia
  TGI: > 22.1 µM
SF-268 CNS
  TGI: 39.6 µM
SN12C renal
  TGI: 27 µM
UACC-257 melanoma
  TGI: 4.44 µM
UACC-62 melanoma
  TGI: 7.74 µM

## NS(=O)(=O)c1ccc(NC(=S)/N=C/C2=C(O)c3ccccc3C2=O)cc1
COLO 205 colon
  TGI: > 100 µM
EKVX NSCLC
  TGI: > 100 µM
KM12 colon
  TGI: > 100 µM
M14 melanoma
  TGI: > 100 µM
MCF7 breast
  TGI: > 100 µM
RPMI-8226 leukemia
  TGI: > 100 µM
SF-268 CNS
  TGI: > 100 µM
SN12C renal
  TGI: > 100 µM
UACC-257 melanoma
  TGI: > 100 µM
UACC-62 melanoma
  TGI: > 100 µM

## O=C1OC(C2Cc3ccc4ccccc4c3C2=O)c2ccccc21 (stereo not drawn)
COLO 205 colon
  TGI: > 100 µM
EKVX NSCLC
  TGI: > 100 µM
KM12 colon
  TGI: > 100 µM
M14 melanoma
  TGI: > 100 µM
MCF7 breast
  TGI: > 100 µM
RPMI-8226 leukemia
  TGI: 93.3 µM
SF-268 CNS
  TGI: > 100 µM
SN12C renal
  TGI: > 100 µM
UACC-257 melanoma
  TGI: > 100 µM
UACC-62 melanoma
  TGI: > 100 µM

## N[C@@H](Cc1ccccc1)C(=O)N1CCC[C@@H]1P(=O)(Oc1ccccc1)Oc1ccccc1
COLO 205 colon
  TGI: > 100 µM
EKVX NSCLC
  TGI: > 100 µM
KM12 colon
  TGI: > 100 µM
M14 melanoma
  TGI: > 100 µM
MCF7 breast
  TGI: > 100 µM
RPMI-8226 leukemia
  TGI: > 100 µM
SF-268 CNS
  TGI: > 100 µM
SN12C renal
  TGI: > 100 µM
UACC-257 melanoma
  TGI: > 100 µM
UACC-62 melanoma
  TGI: > 100 µM

## Cc1nc(C)c(C(=O)NNC(=O)C[N+](C)(C)C)cc1C(=O)NNC(=O)C[N+](C)(C)C
COLO 205 colon
  TGI: > 100 µM
EKVX NSCLC
  TGI: > 100 µM
KM12 colon
  TGI: > 100 µM
M14 melanoma
  TGI: > 100 µM
MCF7 breast
  TGI: > 100 µM
SF-268 CNS
  TGI: > 100 µM
SN12C renal
  TGI: > 100 µM
UACC-257 melanoma
  TGI: > 100 µM
UACC-62 melanoma
  TGI: > 100 µM

## NCCCN1c2ccccc2Sc2ccc(Cl)cc21
COLO 205 colon
  TGI: 3.27 µM
EKVX NSCLC
  TGI: > 10 µM
KM12 colon
  TGI: > 6.37 µM
M14 melanoma
  TGI: 3.21 µM
MCF7 breast
  TGI: 3.21 µM
RPMI-8226 leukemia
  TGI: > 10 µM
SF-268 CNS
  TGI: > 10 µM
SN12C renal
  TGI: > 10 µM
UACC-257 melanoma
  TGI: > 10 µM
UACC-62 melanoma
  TGI: > 10 µM

## O=P(O)(O)C(N=C(Nc1ccccc1)Nc1ccccc1)P(=O)(O)O
COLO 205 colon
  TGI: > 100 µM
EKVX NSCLC
  TGI: > 100 µM
KM12 colon
  TGI: > 100 µM
M14 melanoma
  TGI: > 100 µM
MCF7 breast
  TGI: > 100 µM
SF-268 CNS
  TGI: > 100 µM
UACC-257 melanoma
  TGI: > 100 µM
UACC-62 melanoma
  TGI: > 100 µM

## CC1=CCC([C@@](C)(O)CCCC(C)(C)N=C=S)CC1 (stereo partly drawn)
COLO 205 colon
  TGI: 30.2 µM
EKVX NSCLC
  TGI: 32.5 µM
KM12 colon
  TGI: 29.5 µM
M14 melanoma
  TGI: 30.8 µM
MCF7 breast
  TGI: 34.6 µM
RPMI-8226 leukemia
  TGI: 67.3 µM
SF-268 CNS
  TGI: 31.6 µM
SN12C renal
  TGI: 35.6 µM
UACC-257 melanoma
  TGI: 35 µM
UACC-62 melanoma
  TGI: 34.7 µM

## Cc1ccc(S(=O)(=O)n2c3c(c4ccccc42)CCN2C[C@H]([C@H](C)Br)CC[C@@H]32)cc1
COLO 205 colon
  TGI: > 100 µM
EKVX NSCLC
  TGI: > 100 µM
KM12 colon
  TGI: > 100 µM
M14 melanoma
  TGI: > 100 µM
MCF7 breast
  TGI: > 100 µM
RPMI-8226 leukemia
  TGI: > 100 µM
SF-268 CNS
  TGI: > 100 µM
UACC-257 melanoma
  TGI: > 100 µM
UACC-62 melanoma
  TGI: > 100 µM

## CCCNc1ncnc2c1ncn2C
COLO 205 colon
  TGI: > 100 µM
EKVX NSCLC
  TGI: > 100 µM
KM12 colon
  TGI: > 100 µM
M14 melanoma
  TGI: > 100 µM
MCF7 breast
  TGI: > 100 µM
RPMI-8226 leukemia
  TGI: > 100 µM
SN12C renal
  TGI: 98.2 µM
UACC-257 melanoma
  TGI: > 100 µM
UACC-62 melanoma
  TGI: > 100 µM

## O=c1oc2cc(O)ccc2c(O)c1C(c1ccccc1)c1c(O)c2ccc(O)cc2oc1=O
COLO 205 colon
  TGI: > 100 µM
EKVX NSCLC
  TGI: > 100 µM
M14 melanoma
  TGI: > 100 µM
MCF7 breast
  TGI: > 100 µM
SF-268 CNS
  TGI: > 100 µM
SN12C renal
  TGI: > 100 µM
UACC-257 melanoma
  TGI: > 100 µM
UACC-62 melanoma
  TGI: > 100 µM

## O=C(O)CN1CCNCCN(CC(=O)O)CCN(CC(=O)O)CCNCC1
COLO 205 colon
  TGI: > 100 µM
EKVX NSCLC
  TGI: > 100 µM
KM12 colon
  TGI: > 100 µM
M14 melanoma
  TGI: > 100 µM
MCF7 breast
  TGI: > 100 µM
RPMI-8226 leukemia
  TGI: > 100 µM
SN12C renal
  TGI: > 100 µM
UACC-257 melanoma
  TGI: > 100 µM
UACC-62 melanoma
  TGI: > 100 µM

## CCCCCCCCCCCCCCCCNc1cccc2ccccc12
COLO 205 colon
  TGI: > 100 µM
EKVX NSCLC
  TGI: > 100 µM
KM12 colon
  TGI: > 100 µM
M14 melanoma
  TGI: > 100 µM
RPMI-8226 leukemia
  TGI: > 100 µM
SF-268 CNS
  TGI: > 100 µM
SN12C renal
  TGI: > 100 µM
UACC-257 melanoma
  TGI: > 100 µM
UACC-62 melanoma
  TGI: > 100 µM

## CCCCCC#CCOC(=O)C(=[N+]=[N-])P(=O)(c1ccccc1)c1ccccc1
EKVX NSCLC
  TGI: > 10 µM
KM12 colon
  TGI: > 10 µM
M14 melanoma
  TGI: > 10 µM
MCF7 breast
  TGI: > 10 µM
RPMI-8226 leukemia
  TGI: > 10 µM
SF-268 CNS
  TGI: > 10 µM
SN12C renal
  TGI: > 10 µM
UACC-257 melanoma
  TGI: > 10 µM
UACC-62 melanoma
  TGI: > 10 µM

## COc1ccc(C2c3cn[nH]c3CC3CCCCC32)cc1 (stereo not drawn)
M14 melanoma
  TGI: 36.6 µM
MCF7 breast
  TGI: 32.8 µM
RPMI-8226 leukemia
  TGI: 73.2 µM
SF-268 CNS
  TGI: 39.6 µM
SN12C renal
  TGI: 33.2 µM
UACC-257 melanoma
  TGI: 45.9 µM
UACC-62 melanoma
  TGI: 24.6 µM

## CC(C)c1cc2c(c(O)c1O)[C@@]1(C(=O)O)CCCC(C)(C)[C@@H]1CC2
COLO 205 colon
  TGI: > 100 µM
EKVX NSCLC
  TGI: 30.8 µM
KM12 colon
  TGI: 27 µM
MCF7 breast
  TGI: 45.2 µM
RPMI-8226 leukemia
  TGI: 30.3 µM
SF-268 CNS
  TGI: 41.3 µM
SN12C renal
  TGI: 64.8 µM
UACC-257 melanoma
  TGI: 33.4 µM
UACC-62 melanoma
  TGI: 30.8 µM

## Cc1c(O)nc(-n2[nH]c3c(c2=O)CCCC3)[nH]c1=O
COLO 205 colon
  TGI: > 100 µM
EKVX NSCLC
  TGI: > 100 µM
KM12 colon
  TGI: > 100 µM
M14 melanoma
  TGI: > 100 µM
RPMI-8226 leukemia
  TGI: > 100 µM
SF-268 CNS
  TGI: > 100 µM
SN12C renal
  TGI: > 100 µM
UACC-257 melanoma
  TGI: > 100 µM
UACC-62 melanoma
  TGI: > 100 µM
